Results taken from US7160903B2, “Sulfonylaminocarboxylic acids” (Sanofi-Aventis Deutschland GmbH, priority 1997, dated 2007).

Legend:
stromelysin (MMP-3) = target: T1, stromelysin (MMP-3) (Homo sapiens, UniProt P08254); experiment: Enzymatic activity of the catalytic domain of human stromelysin (fluorogenic substrate); type: biochemical; conditions: pH=6.5, 15 min preincubation, fluorescence 328 nm (ex)/393 nm (em)
T1 construct: enzymatic activity of the catalytic domains of human stromelysin and of neutrophil collagenase; made in house
Protocol: (§1) Preparation and determination of the enzymatic activity of the catalytic domains of human stromelysin and of neutrophil collagenase:
(§2) The enzymes stromelysin (MMP-3) and neutrophil collagenase (MMP-8) were prepared according to Ye et al. (Biochemistry; 31 (1992) pages 11231–11235). To measure the enzyme activity or the enzyme inhibitor action, 70 μl of buffer solution and 10 μl of enzyme solution are incubated for 15 min with 10 μl of a 10% strength (v/v) aqueous dimethyl sulfoxide solution, which optionally contains the enzyme inhibitor. After addition of 10 μl of a 10% strength (v/v) aqueous dimethyl sulfoxide solution which contains 1 mmol/L of the substrate, the enzyme reaction is monitored by fluorescence spectroscopy (328 nm (ex)/393 nm(em)). The enzyme activity is shown as the extinction increase/min. The IC50 values listed in Table 2 are determined as those inhibitor concentrations which in each case led to a 50% inhibition of the enzyme.
(§3) The buffer solution contains 0.05% Brij (Sigma, Deisenhofen, Germany) and also 0.1 mol/L Tris/HCl, 0.1 mol/L NaCl, 0.01 mol/L CaCl2 and 0.1 mol/L piperazine-N,N′-bis[2-ethanesulfonic acid] (pH=6.5). The enzyme solution contains 5 μg/ml of one of the enzyme domains prepared according to Ye et al. The substrate solution contains 1 mmol/L of the fluorogenic substrate (7-methoxycoumarin-4-yl)acetyl-Pro-Leu-Gly-Leu-3-(2′,4′-dinitrophenyl)-L-2,3-diaminopropionyl-Ala-Arg-NH2 (Bachem, Heidelberg, Germany).

[1] = target: T2, neutrophil collagenase (MMP-8) (Homo sapiens, UniProt P22894); experiment: Enzymatic activity of the catalytic domain of neutrophil collagenase (fluorogenic substrate); type: biochemical; conditions: pH=6.5, 15 min preincubation, fluorescence 328 nm (ex)/393 nm (em), read-out: Neutr. collagenase IC50
T2 construct: enzymatic activity of the catalytic domains of human stromelysin and of neutrophil collagenase; made in house
Protocol: as §1, §2, §3

T2 sequence (P22894 100-262 limits assumed): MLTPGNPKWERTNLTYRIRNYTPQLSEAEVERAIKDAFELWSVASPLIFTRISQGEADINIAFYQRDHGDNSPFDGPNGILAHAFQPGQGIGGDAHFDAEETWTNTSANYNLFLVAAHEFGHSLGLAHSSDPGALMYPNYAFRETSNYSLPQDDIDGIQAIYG
T1 sequence (P08254 100-272 limits assumed): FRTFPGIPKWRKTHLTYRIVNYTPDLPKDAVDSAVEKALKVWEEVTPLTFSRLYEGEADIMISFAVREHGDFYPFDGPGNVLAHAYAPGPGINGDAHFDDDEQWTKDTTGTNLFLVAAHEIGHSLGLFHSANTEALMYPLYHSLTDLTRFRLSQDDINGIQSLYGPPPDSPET

| IC50 (stromelysin (MMP-3)) | IC50 [1] | melting point | SMILES |
| --- | --- | --- | --- |
| 100 nM | 10 nM | 176 °C | O=C(O)[C@@H](NS(=O)(=O)c1ccc(Oc2ccccc2)cc1)[C@@H](O)c1ccc2c(c1)OCO2 (racemic) [Example 35] |
| 40 nM | 6 nM | 159 to 161 °C | CSCC[C@H](NC(=O)CC[C@H](NS(=O)(=O)c1ccc(-c2ccccc2)cc1)C(=O)O)C(=O)O [Example 58] |
| 10 nM | 2 nM | > 145 °C (dec.) | O=C(O)[C@@H](Cc1c[nH]c2ccccc12)NS(=O)(=O)c1ccc(-c2ccc(N3CCCC3)cc2)cc1 [Example 71] |
| 300 nM | 20 nM | 96 to 98 °C | C[C@H](O)[C@H](NS(=O)(=O)c1ccc(Oc2ccccc2)cc1)C(=O)O [Example 9] |
| 5 nM | 3 nM | 234 to 236 °C (dec.) | O=C(CCC(NS(=O)(=O)c1ccc(-c2ccc(N3CCCC3)cc2)cc1)C(=O)O)Nc1ccccc1 (racemic) [Example 76] |
| 200 nM | 20 nM | > 250 °C (dec.) | O=C(O)[C@H](CCc1nc2ccccc2[nH]1)NS(=O)(=O)c1ccc(-c2ccccc2)cc1 [Example 93] |
| 20000 nM | 200 nM | 162 to 164 °C | O=C(O)CNS(=O)(=O)c1ccc(Oc2ccc(Cl)cc2)cc1 [Example 3] |
| 10 nM | 2 nM | > 245 °C (dec.) | O=C(CC[C@H](NS(=O)(=O)c1ccc(-c2ccc(N3CCCC3)cc2)cc1)C(=O)O)Nc1ccc(F)cc1 [Example 90] |
| 400 nM | 100 nM | 131 to 134 °C | O=C(O)[C@@H](Cc1c[nH]c2ccccc12)NS(=O)(=O)c1ccc(-n2nccn2)cc1 [Example 68] |
| 100 nM | 10 nM | 187.5 to 188.5 °C | O=C(CC[C@H](NS(=O)(=O)c1ccc(-c2ccccc2)cc1)C(=O)O)Nc1ccccc1Cl [Example 74] |
| 100 nM | 3 nM | > 108 °C (dec.) | CN(C)c1ccc(-c2ccc(S(=O)(=O)N[C@@H](CCC(=O)O)C(=O)O)cc2)cc1 [Example 70] |
| 70 nM | 2 nM | 121 to 127 °C | Br.CN(C)c1ccc(-c2ccc(S(=O)(=O)N[C@@H](CC(=O)O)C(=O)O)cc2)cc1 [Example 40] |
| 300 nM | 20 nM | 219 to 221 °C | COc1ccc(NC(=O)CC[C@H](NS(=O)(=O)c2ccc(-c3ccccc3)cc2)C(=O)O)cc1 [Example 89] |
| 30 nM | 5 nM | > 245 °C (dec.) | O=C(CC[C@H](NS(=O)(=O)c1ccc(-c2ccc(Cl)cc2)cc1)C(=O)O)Nc1ccc(F)cc1 [Example 87] |
| 300 nM | 10 nM | 202 to 203 °C | O=C(O)[C@H](CO)NS(=O)(=O)c1ccc(Oc2ccccc2)cc1 [Example 8] |
| 7 nM | 2 nM | > 228 °C (dec.) | O=C(CC[C@H](NS(=O)(=O)c1ccc(-c2ccc(N3CCCC3)cc2)cc1)C(=O)O)Nc1ccccc1 [Example 80] |
| 400 nM | 10 nM | 134 °C | O=C(O)[C@@H](CCO)NS(=O)(=O)c1ccc(Oc2ccccc2)cc1 (racemic) [Example 1, N-(Phenoxybenzenesulfonyl) homoserine] |
| 600 nM | 20 nM | > 245 °C (dec.) | O=C(CC[C@H](NS(=O)(=O)c1ccc(-c2ccccc2)cc1)C(=O)O)Nc1ccc(F)c(Cl)c1 [Example 96] |
| 30 nM | 5 nM | 93 to 95 °C | CC(C)C[C@H](NC(=O)CC[C@H](NS(=O)(=O)c1ccc(-c2ccccc2)cc1)C(=O)O)C(=O)O [Example 56] |

| IC50 (stromelysin (MMP-3)) | IC50 [1] | melting point | SMILES |
| --- | --- | --- | --- |
| 3000 nM | 600 nM | 195 to 196 °C | O=C(O)C1CCCCN1S(=O)(=O)c1ccc(-n2nccn2)cc1 (racemic) [Example 63] |
| 4 nM | 4 nM | > 220 °C (dec.) | O=C(O)CC[C@H](NS(=O)(=O)c1ccc(-c2ccc(N3CCCC3)cc2)cc1)C(=O)O [Example 77] |
| 20 nM | 2 nM | > 230 °C (dec.) | O=C(O)C(Cc1c[nH]c2ccc(F)cc12)NS(=O)(=O)c1ccc(-c2ccc(N3CCCC3)cc2)cc1 (racemic) [Example 78] |
| 20 nM | 2 nM | 258 to 260 °C | CN(C)c1ccc(-c2ccc(S(=O)(=O)N[C@H](Cc3c[nH]c4ccccc34)C(=O)O)cc2)cc1 [Example 66] |
| 300 nM | 20 nM | > 110 °C (dec.) | NC(=O)CC[C@H](NC(=O)CC[C@H](NS(=O)(=O)c1ccc(-c2ccccc2)cc1)C(=O)O)C(=O)O [Example 95] |
| 400 nM | 30 nM | > 155 °C (dec.) | CCN(C(=O)CC[C@H](NS(=O)(=O)c1ccc(-c2ccccc2)cc1)C(=O)O)c1ccccc1 [Example 98] |
| 10 nM | 2 nM | 240.5 to 241.5 °C (dec.) | CN(C)c1ccc(-c2ccc(S(=O)(=O)N[C@@H](CCC(=O)Nc3ccccc3)C(=O)O)cc2)cc1 [Example 81] |
| 400 nM | 20 nM | 155 to 158 °C | O=C(O)CC[C@@H](NS(=O)(=O)c1ccc(-c2ccccc2)cc1)C(=O)O [Example 61] |
| 5000 nM | 2 nM | 245 to 245.5 °C | COC(=O)c1ccc(NC(=O)CC[C@H](NS(=O)(=O)c2ccc(-c3ccccc3)cc2)C(=O)O)cc1 [Example 84] |
| 10 nM | 4 nM | 238 to 239 °C | O=C(CCC(NS(=O)(=O)c1ccc(-c2ccc(Cl)cc2)cc1)C(=O)O)Nc1ccccc1 (racemic) [Example 69] |
| 1000 nM | 200 nM | 155.5 to 156.5 °C | CSCC[C@@H](NS(=O)(=O)c1ccc(-n2nccn2)cc1)C(=O)O [Example 67] |
| 300 nM | 10 nM | 220 °C | N#Cc1ccc(NC(=O)CC[C@H](NS(=O)(=O)c2ccc(-c3ccccc3)cc2)C(=O)O)cc1 [Example 86] |
| 90 nM | 3 nM | 180 to 186 °C | CSCC[C@@H](NS(=O)(=O)c1ccc(-c2ccc(N(C)C)cc2)cc1)C(=O)O [Example 11] |
| 100 nM | 3 nM | > 230 °C (dec.) | COc1ccc(CC(NS(=O)(=O)c2ccc(-c3ccc(N(C)C)cc3)cc2)C(=O)O)cc1OC (racemic) [Example 65] |
| 1000 nM | 30 nM | > 290 °C (dec.) | O=C(CC[C@H](NS(=O)(=O)c1ccc(-c2ccccc2)cc1)C(=O)O)Nc1ccncc1 [Example 97] |
| 600 nM | 20 nM | 145 to 146 °C | O=C(O)CC[C@H](NS(=O)(=O)c1ccc(-c2ccccc2)cc1)C(=O)O [Example 60] |
| 1000 nM | 50 nM | 120 to 122 °C | O=C(O)[C@H](Cc1cn(S(=O)(=O)c2ccc(Oc3ccccc3)cc2)cn1)NS(=O)(=O)c1ccc(Oc2ccccc2)cc1 [Example 31] |
| 700 nM | 50 nM | > 230 °C (dec.) | CC(=O)Nc1ccc(NC(=O)CC[C@H](NS(=O)(=O)c2ccc(-c3ccccc3)cc2)C(=O)O)cc1 [Example 99] |
